Assay results published in paper PMC8050080, “Cannabis sativa terpenes are cannabimimetic and selectively enhance cannabinoid activity” (Scientific Reports, 2021).

Columns and labels:
[1] = test system: male and female CD-1 mice; assay: Tail flick thermal latency test (antinociception); type: in vivo; details: for tail flick antinociception (efficacy in words): terpenes 50–200 mg/kg i.p. (β-Caryophyllene 100 mg/kg), WIN55,212-2 up to 10 mg/kg, over 2 h
Protocol: Antinociception was tested using the tail flick thermal latency test. Mice were baselined by gently restraining the animal and lowering the distal portion of the tail into a water bath set to 52 °C or 47 °C where stated, and the latency to flick the tail recorded with a stopwatch, with a 10 s cutoff. Mice were then injected with compounds intraperitoneally (i.p.). Thermal latency was then assessed over a time course of 2 h, or at a single time-point as noted. […] For assays using terpene/WIN55,212-2 co-treatment, WIN55,212-2 was co-administered with terpene in the same solution.

[2] = test system: male and female CD-1 mice; assay: Hypothermia (core temperature, rectal thermometer); type: in vivo; details: for hypothermia vs baseline: 30 min after i.p. 200 mg/kg terpene or 5.6 mg/kg WIN55,212-2, Fig. S2A; for effect of rimonabant pretreatment on hypothermia: 10 mg/kg rimonabant, 200 mg/kg terpene or 5.6 mg/kg WIN55,212-2, Fig. 3, S4C
Protocol: Changes in core temperature were assessed using a lubricated rectal thermometer placed 1.0 cm into the mouse rectum. Temperature was assessed before treatment and 30 min post-treatment.

[3] = test system: male and female CD-1 mice; assay: Catalepsy ring test; type: in vivo; details: for effect of istradefyllene pretreatment on catalepsy response: 10 mg/kg istradefyllene; for effect of istradefyllene pretreatment on catalepsy response / effect of rimonabant pretreatment on catalepsy response: 200 mg/kg terpene, Fig. 4; for effect of rimonabant pretreatment on catalepsy response: 10 mg/kg rimonabant; for catalepsy vs baseline: 15 min after i.p. 200 mg/kg terpene or 5.6 mg/kg WIN55,212-2, Fig. S2B; for catalepsy of terpene combined with WIN55,212-2: 200 mg/kg terpene + 5.6 mg/kg WIN55,212-2, Fig. 4
Protocol: Potential induction of catalepsy was assessed using the ring test as described. Mice were baselined, injected with compound, and then assessed with the ring test at 15 min post-injection. Data was represented as the percentage (%) of time in a “cataleptic” immobile state over the 5 min observation period.

WT CHO cells = assay: ERK phosphorylation (Western) in WT CHO cells; type: cell-based; details: for ERK phosphorylation in WT CHO cells: 500 μM terpene or 10 μM WIN55,212-2, 5 min, Fig. 7B; for rimonabant sensitivity of ERK activation in WT CHO cells: 500 μM terpene after 10 μM rimonabant, Fig. 7C
Protocol: WT-CHO cells were obtained from ATCC (#CCL-61). CHO cells stably expressing the human CB1 receptor were obtained from PerkinElmer (#ES-110-C) and utilized for western blots (CB1-CHO-C2) or binding assays (CB1-CHO-C3). HitHunter (CB1-CHO-cAMP) and PathHunter (CB-CHO-βarr2) assays were performed on respective CB1-CHO lines, and were a kind gift from Dr. Robert Laprairie[44]. CHO cells stably expressing cloned CB2 (CB2-CHO) were produced by electroporation with the human CB2 N-3xHA tag cDNA (GeneCopoeia). A stable expressing population was selected for with 500 μg/mL G418. CHO cells stably expressing the human mu opioid receptor were obtained from PerkinElmer (#ES-542-C). All cells were grown on 10 cm dishes in DMEM/F-12 50/50 mix w/ L-glutamine and 15 mM HEPES (Corning) containing 10% heat-inactivated fetal bovine serum, 100 units/mL penicillin, 100 units/mL streptomycin, and 400 μg/mL G418 (CB1-CHO-C2, CB1-CHO-C3, CB2-CHO, MOR-CHO); 800 μg/mL G418 (CB1-CHO-cAMP); 800 μg/mL G418 and 300 μg/mL hygromycin B (CB1-CHO-βarr2). WT CHO were grown as stated above without selection antibiotic. Cells were incubated in a humidified incubator at 37 °C with 5% CO2 and were sub-cultured every 2–3 days.
Cells were plated in 6-well plates 24 h prior to the start of the experiments. Cells were serum starved for 1 h then treated for 5 min with compound. In antagonist experiments, cells were pretreated for 5 min before agonist treatment for 5 min. Media was then aspirated, cells were placed on ice, washed with ice-cold PBS once, and lysis buffer (20 mM Tris–HCl, pH 7.4, 150 mM NaCl, 2 mM EDTA, 0.1% SDS, 1% Nonidet P-40, 0.25% deoxycholate, 1 mM sodium orthovanadate, 1 mM PMSF, 1 mM sodium fluoride, and a protease inhibitor cocktail (EMD Millipore)), was added. Cells were scraped and collected. Lysates were vortexed then centrifuged at 13 k rpm at 4 °C for 10 min. Lysates were then processed for Western blots or stored at − 80 °C.
Cell lysate protein was quantified with a modified BCA protein assay using manufacturers protocol (Bio-Rad). Samples (20–30 μg) were ran on precast gels (10% Bis–Tris, Bolt brand, from ThermoFisher). Gels were wet-transferred to nitrocellulose membranes at 30 V for at least 60 min at 4 °C. Blots were blocked with 5% non-fat dry milk in TBS for 30 min, washed 3 × for 5 min with TBS + 0.1% Tween-20 (TBST), and incubated with primary antibody overnight at 4 °C. Primary antibody: pERK and tERK (Cell Signaling) at 1:1000 dilution in 5% BSA in TBST. Blots were then washed 3 × with TBST then incubated with secondary antibodies for 90 min at room temperature. Secondary antibodies: Goat anti-Rabbit 800 W and Goat anti-Mouse 680 diluted at 1:10,000 and 1:20,000 (Licor), respectively, in 5% non-fat milk in TBST. Blots were washed 3X with TBST and 1 × with TBS, then imaged on a Licor Odyssey Fc or Azure Sapphire. Bands were analyzed using Image-J and reported as pERK/tERK normalized to the standard, or simply as pERK/tERK.

human mu opioid receptor = biological target: T1, human mu opioid receptor (Homo sapiens, UniProt P35372); type: cell-based; details: 500 μM terpene or 10 μM morphine, 5 min, Fig. S13A
T1 construct: host or cells: CHO (MOR-CHO)
Protocol: Cells were plated in 6-well plates 24 h prior to the start of the experiments. Cells were serum starved for 1 h then treated for 5 min with compound. In antagonist experiments, cells were pretreated for 5 min before agonist treatment for 5 min. […] Cells were scraped and collected. Lysates were vortexed then centrifuged at 13 k rpm at 4 °C for 10 min. Lysates were then processed for Western blots or stored at − 80 °C.
CHO cells were serum starved for 1 hr, then treated with Vehicle, 10 μM morphine, or 500
μM terpene for 5 min. ERK was quantitated and reported as above. Data expressed as the
vs. Vehicle group by 1 Way ANOVA with Dunnett’s post hoc test. B) MOR-CHO cells
serum starved for 1 hr, then pre-treated with Vehicle or 10 μM naloxone for 10 min, then
treated with Vehicle, 10 μM morphine, or 500 μM terpene for 5 min. ERK quantitated,
reported, and normalized as in A (n=3 independent experiments). *, **** = p < 0.05,
0.0001 vs. terpene-alone group for each set by 1 Way ANOVA with Sidak’s post hoc test
(set up as pairwise comparisons between terpene and terpene + naloxone for each set). For
both, representative blots are shown below each graph.

CB1 = CB1 (Homo sapiens, UniProt P21554); assay: biochemical; type: binding; details: CB1-CHO membranes, Fig. 8A
[4] = test system: male and female CD-1 mice; assay: Open field test (hypolocomotion); details: for mobile time of terpene combined with WIN55,212-2: 200 mg/kg terpene + 5.6 mg/kg WIN55,212-2, Fig. 5; for locomotor activity vs baseline / distance traveled and mobile time, experiment without baseline recording: 200 mg/kg terpene or 5.6 mg/kg WIN55,212-2 i.p.; for locomotor activity vs baseline: compared to baseline values, Fig. S2C,D, confounded by habituation; for distance traveled and mobile time, experiment without baseline recording: vs Vehicle, Fig. S3A,B
Protocol: All experiments were performed on male and female CD-1 (a.k.a. ICR) mice obtained from Charles River in age-matched cohorts of 5–6 weeks of age. […] The animals were maintained in an AAALAC-accredited vivarium at the University of Arizona in temperature and humidity-controlled rooms on a 12-h light/dark cycle. Standard chow and water were available ad libitum. […] Mice were randomized to treatment group by randomization of mice to cages upon arrival, and block random assignment of cages to treatment group. The experimenter was blinded to treatment group by the delivery of coded drug vials. The groups were not decoded until all data had been acquired.
The open field test was used to determine potential hypolocomotive properties induced by terpene and cannabinoid treatment. The open field box was a white box with an open top and black floor. The tracking area was 30 cm × 28 cm. Mice were baselined by placing the mouse in the center of the box and recording from a video camera ~ 1.5 m above for a period of 5 min. Mice were then injected with compound and placed back in the open field box 10–15 min post-injection. In follow-up experiments, mice were not baselined, injected with compound, and placed in the open field box from 10 to 15 min. The total distance traveled and mobile time of mice were analyzed using AnyMaze software.

[5] = test system: male and female CD-1 mice; assay: Cannabinoid tetrad of behaviors (antinociception, hypolocomotion, catalepsy, hypothermia); type: in vivo; details: 5.6 mg/kg WIN55,212-2 after 10 mg/kg rimonabant i.p., Fig. S4
From the text: Our first set of experiments sought to determine whether selected terpenes/terpenoids (α-Humulene, β-Pinene, Linalool [terpenoid], Geraniol [terpenoid], and β-Caryophyllene as a putative cannabinoid receptor type 2 [CB2] agonist control) had activity in the cannabinoid tetrad of behaviors mediated by the CB1 receptor: antinociception, hypolocomotion, catalepsy, and hypothermia. These terpenes were selected based on their quantities in Cannabis sativa, with α-Humulene, β-Pinene, Linalool, and β-Caryophyllene all being found in higher quantities and Geraniol in lower to underdetermined quantities. Although it is not clear if geraniol is present in higher quantities, we nonetheless chose this ligand due to its reported anti-nociceptive activity (e.g.[22]). Terpenes were administered at several doses (50–200 mg/kg) i.p. and assessed in the tail flick assay in male and female CD-1 mice. […]
Antinociception was tested using the tail flick thermal latency test. Mice were baselined by gently restraining the animal and lowering the distal portion of the tail into a water bath set to 52 °C or 47 °C where stated, and the latency to flick the tail recorded with a stopwatch, with a 10 s cutoff. […] Thermal latency was then assessed over a time course of 2 h, or at a single time-point as noted. […]
Potential induction of catalepsy was assessed using the ring test as described. […]

Sequence of CB1 (P21554 whole entry): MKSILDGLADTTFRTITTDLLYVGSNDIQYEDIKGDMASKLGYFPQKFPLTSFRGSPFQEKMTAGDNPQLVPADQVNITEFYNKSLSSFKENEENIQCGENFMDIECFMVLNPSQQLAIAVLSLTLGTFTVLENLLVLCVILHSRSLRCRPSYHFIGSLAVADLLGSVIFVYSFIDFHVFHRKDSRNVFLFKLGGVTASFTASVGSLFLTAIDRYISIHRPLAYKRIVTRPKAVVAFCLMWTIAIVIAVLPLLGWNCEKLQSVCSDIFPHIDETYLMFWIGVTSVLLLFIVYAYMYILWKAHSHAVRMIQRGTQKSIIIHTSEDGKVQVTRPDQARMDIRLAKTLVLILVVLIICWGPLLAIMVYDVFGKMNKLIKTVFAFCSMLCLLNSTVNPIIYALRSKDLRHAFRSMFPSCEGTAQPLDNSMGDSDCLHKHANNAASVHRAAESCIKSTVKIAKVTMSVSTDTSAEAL
T1 sequence (P35372 whole entry): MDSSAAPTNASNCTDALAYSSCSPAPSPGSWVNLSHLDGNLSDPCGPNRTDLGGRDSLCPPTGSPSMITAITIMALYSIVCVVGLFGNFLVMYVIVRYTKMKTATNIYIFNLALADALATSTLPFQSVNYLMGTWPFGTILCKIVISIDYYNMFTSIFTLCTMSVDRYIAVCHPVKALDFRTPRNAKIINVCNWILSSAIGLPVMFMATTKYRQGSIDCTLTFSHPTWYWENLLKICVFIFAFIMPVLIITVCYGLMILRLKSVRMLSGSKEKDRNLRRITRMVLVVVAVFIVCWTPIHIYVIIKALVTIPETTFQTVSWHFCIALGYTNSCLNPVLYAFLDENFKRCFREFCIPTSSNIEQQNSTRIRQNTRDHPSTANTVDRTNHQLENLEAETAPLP

Structure (SMILES)	tail flick antinociception (efficacy in words) ([1]; Fig. S1)	hypothermia vs baseline [2]	effect of istradefyllene pretreatment on catalepsy response [3]	effect of rimonabant pretreatment on catalepsy response [3]	catalepsy vs baseline [3]	ERK phosphorylation in WT CHO cells (WT CHO cells)	ERK stimulation in MOR-CHO cells (human mu opioid receptor)	competition for the orthosteric binding site against CP55,940 (CB1)	mobile time of terpene combined with WIN55,212-2 [4]	locomotor activity vs baseline [4]	distance traveled and mobile time, experiment without baseline recording [4]	effect of rimonabant pretreatment on hypothermia [2]	catalepsy of terpene combined with WIN55,212-2 [3]	rimonabant sensitivity of ERK activation in WT CHO cells (WT CHO cells)	also measured
C=CC(C)(O)CCC=C(C)C (stereo not shown) [Linalool]	dose-dependent low efficacy	induced significant hypothermia	partially blocked	small but significant reduction	significant increases in cataleptic behavior	did not cause ERK phosphorylation	no response	little to no competition	further decrease in mobile time	significant reductions in locomotor activity	reductions in distance traveled and mobile time	–	–	–	effect of rimonabant pretreatment on tail flick antinociception ([1]; 200 mg/kg terpene i.p. after 10 mg/kg rimonabant, Fig. 2): fully blocked by rimonabant; tail flick, Linalool combined with WIN55,212-2, females ([1]; female mice, 200 mg/kg + 5.6 mg/kg WIN55,212-2, Fig. S8A): a delay in response and no potentiation over Linalool alone; tail flick, Linalool combined with WIN55,212-2, males ([1]; male mice, 200 mg/kg + 5.6 mg/kg WIN55,212-2, Fig. S8A): greater additive effects of combining both that occurred earlier in the time course; hypolocomotion, antagonist reversal, females ([4]; female mice, 200 mg/kg Linalool, Fig. S8B-C): istradefyllene reversal; hypolocomotion, antagonist reversal, males ([4]; male mice, 200 mg/kg Linalool, Fig. S8B-C): rimonabant reversal
Cc1c(C(=O)NN2CCCCC2)nn(-c2ccc(Cl)cc2Cl)c1-c1ccc(Cl)cc1 [Rimonabant, reference compound]	–	–	–	–	–	–	–	–	–	–	–	–	–	–	effect of rimonabant pretreatment on morphine-induced antinociception ([1]; 10 mg/kg rimonabant i.p., 5.6 mg/kg morphine, Fig. S5A,B): no significant effect; effect of rimonabant on baseline thermal latency ([1]; 10 mg/kg rimonabant, water bath 47 °C, 30 min, Fig. S5C): no significant effect
Cc1c(C(=O)c2cccc3ccccc23)c2cccc3c2n1[C@H](CN1CCOCC1)CO3 [WIN55,212-2, reference compound]	dose-dependent increases in thermal latency with greater efficacy than any of the tested compounds	induced significant hypothermia	–	–	significant increases in cataleptic behavior	did not cause ERK phosphorylation	–	–	–	significant reductions in locomotor activity	reductions in distance traveled and mobile time	only partially reversed	–	–	effect of rimonabant on tetrad behaviors induced by the agonist [5]: fully or partially reverse
CCn1c(=O)c2c(nc(/C=C/c3ccc(OC)c(OC)c3)n2C)n(CC)c1=O [istradefyllene, Istradefyllene, reference compound]	–	–	–	–	–	–	–	–	–	–	–	–	–	–	effect of istradefyllene alone on temperature ([2]; 10 mg/kg i.p., 30 min, Fig. S6A): small but significant hypothermic; effect of istradefyllene alone on locomotion ([4]; 10 mg/kg i.p., open field after 10 min, Fig. S6B,C): hyperlocomotive effect
C/C1=C\CC/C(C)=C/CC(C)(C)/C=C/C1 [α-Humulene]	–	induced significant hypothermia	completely blocked	small but significant reduction	significant increases in cataleptic behavior	activated ERK	produced ERK stimulation	some competition and semi-biphasic properties	further decrease in mobile time	significant reductions in locomotor activity	did not result in significant reductions	partially reverse	additive effects	rimonabant-insensitive	efficacy in the tail flick assay ([1]; terpene 50–200 mg/kg i.p., dose-dependent, Fig. S1): 40–50%; effect of istradefyllene pretreatment on hypothermia ([2]; 10 mg/kg istradefyllene, 200 mg/kg terpene, Fig. 3): partially reversed
C=C1CCC2CC1C2(C)C (stereo not drawn) [β-Pinene]	low efficacy but not in a dose-dependent manner	induced significant hypothermia	completely blocked	no impact	significant increases in cataleptic behavior	activated ERK	produced ERK stimulation	little to no competition	further decrease in mobile time	significant reductions in locomotor activity	reductions in distance traveled and mobile time	–	additive effects	rimonabant-insensitive	effect of istradefyllene pretreatment on mobile time ([4]; 10 mg/kg istradefyllene, 200 mg/kg terpene, Fig. 5): significant reversal; effect of istradefyllene pretreatment on distance traveled ([4]; 10 mg/kg istradefyllene, 200 mg/kg terpene, Fig. S7): istradefyllene reversal
